Data reported in US20260315474A1 (BRISTOL-MYERS SQUIBB COMPANY, priority 2023, published 2026).

Key:
[1] = cited from earlier work; for chronic clopidogrel vs aspirin monotherapy: atherosclerosis, including MI within 35 days
[2] = Thorough QT study (QT/QTc interval, ECG); format: in vivo, human; details: for highest upper limit of 2-sided 90% CI for ΔΔQTcF: Day 1 and Day 4 postdose
[3] = Safety and tolerability of milvexian (thorough QT study / general); format: in vivo, human
Excerpt: All 66 (100.0%) participants enrolled in the study received at least one entire dose of study intervention.

[4] = system: Factor XI; assay: Factor XI clotting activity, AXIOMATIC-SSP; format: in vivo, human
Description: As used herein, “Factor XI Clotting Activity” is determined utilizing an aPTT-based 1-stage clotting time assay. Serial dilutions of normal pooled plasma are mixed with FXI-depleted plasma and the clotting times are measured according to standard aPTT protocol, to establish a reference range. Subject test plasma is treated in the same way and compared with the reference plasma.
In some embodiments, the Factor XI Clotting Activity is measured as follows: Factor XI (FXI) activity is measured using a modification of the activated partial thromboplastin time (aPTT) using Actin FS (Siemens Healthcare) on the Siemens BCS®XP analyzer. […]. The reference standard, at approximately 100%, is diluted by the BCS®XP analyzer in saline to generate pre-selected calibration levels of FXI. The calibration curve is plotted with FXI activity in percent (%) on the x-axis and clotting time in seconds on the y-axis. A log/lin regression curve fit is used. The samples to be tested are mixed with FXI deficient plasma (containing less than 1% FXI and at least 75% of all the other factors) to normalize all other factors. APTT reagent (Actin FS) is added and the mixture is incubated. Following incubation, calcium chloride is added to the mixture and the time to clot formation (measured optically) is compared to the time on the calibration curve. Samples are tested at the base dilution (1:10) prepared by the BCS®XP in saline. In other embodiments, formation of the fibrin clot is measured by mechanical methods (viscosity).
[…]. […] […].

[5] = AXIOMATIC-SSP treatment discontinuation / completion; details: 200 mg BID, primarily due to AEs
Excerpt: The study enrolled participants ≥40 years of age who had ischemic stroke or TIA. Ischemic stroke was defined as a neurological deficit attributable to a non-lacunar, acute brain infarction detected by neuroimaging and relevant to the clinical symptoms and National Institutes of Health Stroke Score (NIHSS)≤7 at the time of randomization. TIA was defined as acute onset neurological deficit attributable to focal ischemia of the brain by history or examination, with complete resolution of the deficit and no brain infarction on neuroimaging and ABCD score ≥6 or presence of motor symptoms. Evidence of relevant intracranial or cervical arterial atherosclerotic plaque, ulceration or thrombus in a feeding artery documented by imaging was required regardless of whether the index event was ischemic stroke or TIA, and all participants were required to have a Modified Rankin Score ≤3 before the index event. […] Following informed consent, participants received ASA 100 mg QD and a single loading dose of clopidogrel 300 mg if not already given as standard of care. […] A second MRI was performed on Day 90±6 days. All participants were required to remain on study treatment until the Day 90 MRI was performed up to Day 96.

[6] = Population pharmacokinetic analysis of AXIOMATIC-SSP PK data; format: in vivo, human; details: 25 mg BID oral
[7] = AXIOMATIC-TKR Phase II trial; format: in vivo, human; details: 25 mg twice daily
Excerpt: […]. […] (Weitz, et al., Milvexian for the Prevention of Venous Thromboembolism, N. Engl. […].

[8] = system: Factor Xa; details: cited from earlier work
[9] = 25 mg BID, Day 21 anytime, N=233
[10] = 25 mg BID, Day 90 anytime, N=223
[11] = dose of 25 mg, 50 mg, or 100 mg
[12] = phase III, ACS patients, in combination with dual antiplatelet therapy

## COC(=O)[C@H](c1ccccc1Cl)N1CCc2sccc2C1 [clopidogrel]
[1]
  chronic clopidogrel vs aspirin monotherapy: comparable results

## COc1c(N2C[C@@H]3CCCN[C@@H]3C2)c(F)cc2c(=O)c(C(=O)O)cn(C3CC3)c12 [moxifloxacin, reference compound]
[2]; following moxifloxacin
  participants with treatment-emergent change from baseline of QTcB>60 ms, number: One
  participants with treatment-emergent change from baseline of QTcB>60 ms, percent: 1.7%
[2]; single dose 400 mg moxifloxacin
  assay sensitivity (QTc, positive control): Assay sensitivity for moxifloxacin was also demonstrated

## C[C@@H]1CCC[C@H](n2cnc(-c3cc(Cl)ccc3-n3cc(Cl)nn3)cc2=O)c2cc(ccn2)-c2c(cnn2C(F)F)NC1=O [milvexian, (5R,9S)-9-(4-(5-chloro-2-(4-chloro-1H-1,2,3-triazol-1-yl)phenyl)-6-oxopyrimidin-1(6H)-yl)-2^1-(difluoromethyl)-5-methyl-2^1H-3-aza-1(4,2)-pyridina-2(5,4)-pyrazolacyclonaphan-4-one]
[3]; administration according to the disclosure
  safety and tolerability: generally safe and well tolerated
[3]; whole study
  mean vital signs: no consistent or clinically relevant changes over time in mean vital signs
[4]; 25 mg BID, Day 1 4 h, N=254
  FXI Clotting Activity percent change from baseline, mean: −7.21%
  FXI Clotting Activity percent change from baseline, median: −8.48%
  FXI Clotting Activity value, median: 100.0%
[4]; 25 mg BID, Day 1 12 h, N=241
  FXI Clotting Activity percent change from baseline, mean: −6.89%
  FXI Clotting Activity percent change from baseline, median: −7.63%
[4]; 25 mg BID, Day 1 24 h, N=253
  FXI Clotting Activity percent change from baseline, mean: −9.69%
  FXI Clotting Activity percent change from baseline, median: −11.30%
[4]; [9]
  FXI Clotting Activity percent change from baseline, mean: −18.1%
  FXI Clotting Activity percent change from baseline, median: −19.10%
[4]; [10]
  FXI Clotting Activity percent change from baseline, mean: −17.7%
  FXI Clotting Activity percent change from baseline, median: −20.16%
[4]; milvexian treated groups
  dose-response of Factor XI clotting activity: dose-dependent decreases in the Factor XI clotting activity
[2]; 100 mg
  upper limits of all 2-sided 90% CIs of time-matched differences vs placebo in changes from baseline in QTcF: below 10 ms
  highest upper limit of 2-sided 90% CI for ΔΔQTcF: 5.16 ms
[2]; 100 mg twice daily
  upper limits of 90% CI for ΔΔQTcF at milvexian Tmax: below 10 ms
[2]; 100 mg twice daily as capsule
  upper bound of two-sided CI for largest ΔΔQTc (QTcF): less than 10 milliseconds
[2]; 200 mg
  upper limits of all 2-sided 90% CIs of time-matched differences vs placebo in changes from baseline in QTcF: below 10 ms
  highest upper limit of 2-sided 90% CI for ΔΔQTcF: 4.57 ms
[2]; 200 mg twice daily
  upper limits of 90% CI for ΔΔQTcF at milvexian Tmax: below 10 ms
[2]; 200 mg twice daily as solution
  upper bound of two-sided CI for largest ΔΔQTc (QTcF): less than 10 milliseconds
[2]; 100 and 200 mg
  effect on QT interval (QTcF), ICH E14: no effect of clinical or regulatory concern on the QT interval
  effect on QT interval (study-specific and Bazett's correction), ICH E14: no effect of clinical or regulatory concern on the QT interval
[2]; [11]
  QTc interval prolongation: no clinically significant QTc interval prolongation
  ΔΔQTc: less than 10 msec
[2]; therapeutic (100 mg) and supratherapeutic (200 mg)
  evidence of QT/QTc interval prolongation, ICH E14: does not show evidence of QT/QTc interval prolongation of clinical or regulatory concern
[2]; whole study
  ECG abnormalities reported as TEAE: No ECG abnormalities were reported as TEAE
  HR, RR interval, PR interval, QRS width: No consistent or clinically relevant changes over time were observed in HR, RR interval, PR interval, or QRS width
  treatment-emergent QTcF or QTcB values >480 ms or changes >60 ms: No treatment-emergent actual values of QTcF or QTcB>480 ms or changes from baseline >60 ms were observed
  treatment-emergent actual values of QTc>480 ms: No treatment-emergent actual values of QTc>480 ms were observed
  treatment-emergent changes from baseline of QTcF or QTcP>60 ms: No treatment-emergent changes from baseline of QTcF or QTcP>60 ms were observed
[5]
  early treatment discontinuation rate: 31.60%
[6]
  steady state mean (std) Cmax: 346 (129) ng/mL
[6]; […]
  steady state mean (std) AUC0-24: 7290 (2940) ng*h/mL
[7]
  efficacy compared with enoxaparin: comparable efficacy to enoxaparin
  safety profile compared with enoxaparin: favorable safety profile

## O=C(NC[C@H]1CN(c2ccc(N3CCOCC3=O)cc2)C(=O)O1)c1ccc(Cl)s1 [rivaroxaban]
[8]; [12]
  risk of death from cardiovascular causes, myocardial infarction, and stroke: reduced the risk of death from cardiovascular causes, myocardial infarction, and stroke
  risk of major bleeding: increased the risk of major bleeding
[8]; post-ACS care
  bleeding risks: increased bleeding risks
  cardiovascular events: reduced cardiovascular events
  thrombin generation: decreased thrombin generation

## CC(=O)Oc1ccccc1C(=O)O [aspirin]
[1]
  chronic clopidogrel vs aspirin monotherapy: comparable results
[1]; pooled randomized trials vs control, secondary prevention of ACS or chronic CAD
  risk and severity of recurrent MACE: reduces the risk and severity of early and late recurrent MACE
